From patent publication US20220362312A1, “CANNABIDIOL-ENHANCED PROBIOTIC COMPOSITIONS AND USES THEREOF FOR TREATMENT OF INFECTIONS” (BUZZELET DEVELOPMENT AND TECHNOLOGIES LTD., priority 2019, published 2022)

Experiments:
Staphylococcus Aureus = assay: Disc-diffusion agar method, antibacterial effect; conditions: for growth inhibition: 48 hours at 30° C.; for effect on growth: at the concentrations tested (0.5 μg and 2 μg)
Escherichia coli = assay: Disc-diffusion agar method, antibacterial effect; conditions: for growth inhibition: 48 hours at 30° C.; for effect on growth: at the concentrations tested (0.5 μg and 2 μg)
Bacillus Thuringiensis = assay: Disc-diffusion agar method, antibacterial effect; conditions: for area of inhibited bacterial growth / growth inhibition: 48 hours at 30° C.; for effect on growth: at the concentrations tested (0.5 μg and 2 μg)
Lactobacillus casei = assay: Disc-diffusion agar method, antibacterial effect; conditions: for growth inhibition: Lactobacillus casei, 48 hours at 30° C.; for effect on growth: lactobacillus Casei, at the concentrations tested (0.5 μg and 2 μg)
Candida albicans = Candida albicans biofilm formation with cannabidiol and/or lactobacillus Casei, crystal violet staining; format: cell-based; conditions: as compared to Candida albicans alone (row 4); incubation 24 hours
Experimental: A study is performed to evaluate the efficacy of a composition comprising cannabidiol and lactobacillus Casei in treating or preventing an infection by pathogenic microorganisms comprising Candida albicans, via preventing biofilm formation.
RPMI medium supplemented with 1% glucose is introduced into each well of a 24-well plate.
Candida albicans contacted with cannabidiol are added to each well of row 1.
Candida albicans contacted with lactobacillus Casei are added to each well of row 2.
Candida albicans contacted with cannabidiol and lactobacillus Casei are added to each well of row 3.
Candida albicans alone are added to each well of row 4.
After incubation for 24 hours, spent medium and free-floating fungi are removed by gentle aspiration and the wells washed twice with phosphate-buffered saline (PBS, pH 7.4).
The presence of biofilm is quantified by crystal violet staining as described above for Example 3.

| Compound | growth inhibition (Staphylococcus Aureus; 0.5 μg on disc) | growth inhibition (Staphylococcus Aureus; 2 μg on disc) | effect on growth (Staphylococcus Aureus) | growth inhibition (Escherichia coli; 0.5 μg on disc) | growth inhibition (Escherichia coli; 2 μg on disc) | effect on growth (Escherichia coli) | area of inhibited bacterial growth (Bacillus Thuringiensis; 0.5 μg on disc) | growth inhibition (Bacillus Thuringiensis; 0.5 μg on disc) | area of inhibited bacterial growth (Bacillus Thuringiensis; 2 μg on disc) | growth inhibition (Bacillus Thuringiensis; 2 μg on disc) | effect on growth (Bacillus Thuringiensis) | growth inhibition (Lactobacillus casei; 0.5 μg on disc) | growth inhibition (Lactobacillus casei; 2 μg on disc) | effect on growth (Lactobacillus casei) | biofilm formation (Candida albicans) |
| --- | --- | --- | --- | --- | --- | --- | --- | --- | --- | --- | --- | --- | --- | --- | --- |
| CCCCCc1cc(O)c2c(c1)OC(C)(C)[C@@H]1CCC(C)=C[C@@H]21 [THC, tetrahydrocannabiniol] | − | − | no effect | − | − | no effect | 1 mm | + | < 1 mm | + | inhibit growth | − | − | no effect |  |
| C=C(C)[C@@H]1CCC(C)=C[C@H]1c1c(O)cc(CCCCC)cc1O [CBD, cannabidiol] | − | − | no effect | − | − | no effect | 2 mm | + | 3 mm | + | inhibit growth | − | − | no effect | significantly inhibited |
